According to US7589087B2 (Janssen Pharmaceutica, N.V., priority 2006, dated 2009):
pKi: −log10 of the molar value. Where a name gives a salt, the structure may show the parent alone.

Biological target: T1, human histamine H4 receptor (Homo sapiens, UniProt Q9H3N8)
T1 construct: expressed in transfected cells; host or cells: SK-N-MC cells or COS7 cells, transiently transfected; membranes prepared
Assay: Binding Assay on Recombinant Human Histamine H4 Receptor (3H-histamine competition, membranes of transfected SK-N-MC or COS7 cells); further: ligand 5 nM
Procedure: SK-N-MC cells or COS7 cells were transiently transfected with pH4R and grown in 150 cm^2 tissue culture dishes. Cells were washed with saline solution, scraped with a cell scraper and collected by centrifugation (1000 rpm, 5 min). Cell membranes were prepared by homogenization of the cell pellet in 20 mM Tris-HCl with a polytron tissue homogenizer for 10 sec at high speed. Homogenate was centrifuged at 1000 rpm for 5 min at 4° C. The supernatant was then collected and centrifuged at 20,000×g for 25 min at 4° C. The final pellet was resuspended in 50 mM Tris-HCl. […] Incubation occurred at room temperature for 45 min. Membranes were harvested by rapid filtration over Whatman GF/C filters and washed 4 times with ice-cold 50 mM Tris HCl. Filters were then dried, mixed with scintillant and counted for radioactivity.

Row | SMILES | pKi
1 | Cc1cc(C)c2nc(-c3ccc(N(C)CCCC4CCN(C)CC4)nc3)[nH]c2c1 [Example 1, [5-(4,6-Dimethyl-1H-benzoimidazol-2-yl)-pyridin-2-yl]-methyl-[3-(1-methyl-piperidin-4-yl)-propyl]-amine] | 7.92
2 | Cc1c(F)ccc2[nH]c(-c3ccc(N(C)CCCC4CCN(C)CC4)nc3)nc12 [Example 2, [5-(5-Fluoro-4-methyl-1H-benzoimidazol-2-yl)-pyridin-2-yl]-methyl-[3-(1-methyl-piperidin-4-yl)-propyl]-amine] | 7.82
3 | Cc1cc(Cl)cc2[nH]c(-c3ccc(NCCCN4CCN(C)CC4)nc3)nc12 [Example 9, [5-(6-Chloro-4-methyl-1H-benzoimidazol-2-yl)-pyridin-2-yl]-[3-(4-methyl-piperazin-1-yl)-propyl]-amine] | 6.46
4 | Cc1c(F)ccc2[nH]c(-c3ccc(NCCCN4CCN(C)CC4)nc3)nc12 [Example 10, [5-(5-Fluoro-4-methyl-1H-benzoimidazol-2-yl)-pyridin-2-yl]-[3-(4-methyl-piperazin-1-yl)-propyl]-amine] | 6.03
5 | Cc1cc(-c2nc3c(C)c(F)ccc3[nH]2)cnc1NCCCC1CCN(C)CC1 [Example 11, [5-(5-Fluoro-4-methyl-1H-benzoimidazol-2-yl)-3-methyl-pyridin-2-yl]-[3-(1-methyl-piperidin-4-yl)-propyl]-amine] | 7.66
6 | Cc1cc(-c2nc3c(F)c(F)ccc3[nH]2)cnc1NCCCC1CCN(C)CC1 [Example 12, [5-(4,5-Difluoro-1H-benzoimidazol-2-yl)-3-methyl-pyridin-2-yl]-[3-(1-methyl-piperidin-4-yl)-propyl]-amine] | 7.11
7 | Cc1c(F)ccc2[nH]c(-c3ccc(N(CCCC4CCN(C)CC4)C(C)C)nc3)nc12 [Example 13, [5-(5-Fluoro-4-methyl-1H-benzoimidazol-2-yl)-pyridin-2-yl]-isopropyl-[3-(1-methyl-piperidin-4-yl)-propyl]-amine] | 6.14
8 | Cc1cc(C)c2nc(-c3ccnc(N(C)CCCCC4CCN(C)CC4)c3)[nH]c2c1 [Example 14, [4-(4,6-Dimethyl-1H-benzoimidazol-2-yl)-pyridin-2-yl]-methyl-[4-(1-methyl-piperidin-4-yl)-butyl]-amine hydrochloride salt] | 7.40
9 | Cc1c(F)ccc2[nH]c(-c3ccnc(NCCCCC4CCN(C)CC4)c3)nc12 [Example 16, [4-(5-Fluoro-4-methyl-1H-benzoimidzol-2-yl)-pyridin-2-yl]-[4-(1-methyl-piperidin-4-yl)-butyl]-amine] | 8.70
10 | Cc1cc(Cl)cc2[nH]c(-c3ccnc(NCCCCC4CCN(C)CC4)c3)nc12 [Example 17, [4-(6-Chloro-4-methyl-1H-benzoimidazol-2-yl)-pyridin-2-yl]-[4-(1-methyl-piperidin-4-yl)-butyl]-amine] | 8.10
11 | Cc1cc(C)c2nc(-c3ccnc(NCCCCC4CCN(C)CC4)c3)[nH]c2c1 [Example 18, [4-(4,6-Dimethyl-1H-benzoimidazol-2-yl)-pyridin-2-yl]-[4-(1-methyl-piperidin-4-yl)-butyl]-amine] | 8.70
12 | Cc1c(F)ccc2[nH]c(-c3ccnc(NCCCCN4CCCN(C)CC4)c3)nc12 [Example 19, [4-(5-Fluoro-4-methyl-1H-benzoimidazol-2-yl)-pyridin-2-yl]-[4-(4-methyl-[1,4]diazepan-1-yl)-butyl]-amine] | 8.30
13 | Cc1c(F)ccc2[nH]c(-c3ccnc(NC(=O)CCCC4CCN(C)CC4)c3)nc12 [Example 20, N-[4-(5-Fluoro-4-methyl-1H-benzoimidazol-2-yl)-pyridin-2-yl]-4-(1-methyl-piperidin-4-yl)-butyramide] | 6.60
14 | Cc1cc(C)c2nc(-c3ccnc(NC(=O)CCCC4CCN(C)CC4)c3)[nH]c2c1 [Example 21, N-[4-(4,6-Dimethyl-1H-benzoimidazol-2-yl)-pyridin-2-yl]-4-(1-methyl-piperidin-4-yl)-butyramide] | 6.54

Results, then the compound that gave them:

Row | pKi | SMILES
15 | 8.22 | CN1CCC(CCCNc2ccc(-c3nc4cc(Cl)ccc4[nH]3)cn2)CC1 [Example 3, [5-(5-Chloro-1H-benzoimidazol-2-yl)-pyridin-2-yl]-[3-(1-methyl-piperidin-4-yl)-propyl]-amine]
16 | 8.05 | CN1CCC(CCCNc2ccc(-c3nc4cc(C(C)(C)C)ccc4[nH]3)cn2)CC1 [Example 4, [5-(5-tert-Butyl-1H-benzoimidazol-2-yl)-pyridin-2-yl]-[3-(1-methyl-piperidin-4-yl)-propyl]-amine]
17 | 7.48 | Cc1c(F)ccc2[nH]c(-c3ccc(NCCCC4CCN(C)CC4)nc3)nc12 [Example 5, [5-(5-Fluoro-4-methyl-1H-benzoimidazol-2-yl)-pyridin-2-yl]-[3-(1-methyl-piperidin-4-yl)-propyl]-amine]
18 | 7.80 | Cc1cc(Cl)cc2[nH]c(-c3ccc(NCCCC4CCN(C)CC4)nc3)nc12 [Example 6, [5-(6-Chloro-4-methyl-1H-benzoimidazol-2-yl)-pyridin-2-yl]-[3-(1-methyl-piperidin-4-yl)-propyl]-amine]
19 | 6.30 | COc1ccc2[nH]c(-c3ccc(NCCCC4CCN(C)CC4)nc3)nc2c1 [Example 7, [5-(5-Methoxy-1H-benzoimidazol-2-yl)-pyridin-2-yl]-[3-(1-methyl-piperidin-4-yl)-propyl]-amine]
20 | 5.80 | COC(=O)c1ccc2[nH]c(-c3ccc(NCCCC4CCN(C)CC4)nc3)nc2c1 [Example 8, 2-{6-[3-(1-Methyl-piperidin-4-yl)-propylamino]-pyridin-3-yl}-1H-benzoimidazole-5-carboxylic acid methyl ester]
21 | 9.00 | Cc1cccc2[nH]c(-c3ccnc(NCCCCC4CCN(C)CC4)c3)nc12 [Example 15, [4-(4-Methyl-1H-benzoimidazol-2-yl)-pyridin-2-yl]-[4-(1-methyl-piperidin-4-yl)-butyl]-amine]
22 | 6.38 | COC(=O)c1ccc2[nH]c(-c3ccc(N(C)CCCC4CCN(C)CC4)nc3)nc2c1 [Example 22, 2-(6-{Methyl-[3-(1-methyl-piperidin-4-yl)-propyl]-amino}-pyridin-3-yl)-1H-benzoimidazole-5-carboxylic acid methyl ester]
23 | 6.62 | Cc1cccc2[nH]c(-c3ccc(NCCCC4CCN(C)CC4)nc3)nc12 [Example 23, [5-(4-Methyl-1H-benzoimidazol-2-yl)-pyridin-2-yl]-[3-(1-methyl-piperidin-4-yl)-propyl]-amine]
24 | 7.64 | Cc1cc(C)c2nc(-c3ccc(NCCCC4CCN(C)CC4)nc3)[nH]c2c1 [Example 24, [5-(4,6-Dimethyl-1H-benzoimidazol-2-yl)-pyridin-2-yl]-[3-(1-methyl-piperidin-4-yl)-propyl]-amine]
25 | 7.24 | Cc1ccc2[nH]c(-c3ccc(NCCCC4CCN(C)CC4)nc3)nc2c1C [Example 25, [5-(4,5-Dimethyl-1H-benzoimidazol-2-yl)-pyridin-2-yl]-[3-(1-methyl-piperidin-4-yl)-propyl]-amine]
26 | 7.89 | CN1CCC(CCCNc2ccc(-c3nc4cc(Cl)c(F)cc4[nH]3)cn2)CC1 [Example 26, [5-(5-Chloro-6-fluoro-1H-benzoimidazol-2-yl)-pyridin-2-yl]-[3-(1-methyl-piperidin-4-yl)-propyl]-amine]
27 | 7.14 | Cc1ccc2[nH]c(-c3ccc(N(C)CCCC4CCN(C)CC4)nc3)nc2c1C [Example 27, [5-(4,5-Dimethyl-1H-benzoimidazol-2-yl)-pyridin-2-yl]-methyl-[3-(1-methyl-piperidin-4-yl)-propyl]-amine]
